How the values were obtained:
pea pericarp = assay: Split-pericarp assay: growth of deseeded pea pericarps attached to the plant; type: in vivo, Pisum sativum
Text: In addition to GAs, developing pea seeds and pericarps contain two auxins, 4-chloroindole-3-acetic acid (4-Cl-IAA) and indole-3-acetic acid (IAA) (Magnus et al. 1997). A split-pericarp assay where test compounds are applied to the inner wall of split and deseeded pericarps that are still attached to the plant has been developed to examine the effects of exogenously applied growth substances on pericarp growth.
During early pea fruit growth, the physiological roles of 4-chloroindole-3-acetic acid (4-Cl-IAA) and IAA, both natural pea auxins, in regulating gibberellin (GA) 20-oxidase gene expression (PsGA20ox1) were tested with 4-position, ring-substituted auxins that have a range of biological activities (fruit growth). The effect of seeds, and natural and synthetic auxins (4-Cl-IAA, and IAA; 4-Me-IAA, 4-Et-IAA and 4-F-IAA, respectively), and auxin concentration (4-Cl-IAA) on PsGA20ox1 mRNA levels in pea pericarp were investigated over a 24 h treatment period. The ability of certain 4-substituted auxins to increase PsGA20ox1 mRNA levels in deseeded pericarp was correlated with their ability to stimulate pericarp growth.

[1] = test system: Pisum sativum L. cv. Carneval; assay: Growth chamber pea study: one 4-ME-IAA spray, heat-stressed and non-stressed plants (Tables 1, 2); type: in vivo; parameters: more pods per plant with mature seeds than control / increase in number of seeds per plant vs control / increase in total seed weight per plant vs control: tested at 1 µM
Text: ‘Carneval’ (Pisum sativum L.) was chosen as a model cultivar as a semi-dwarf (semi-leafless; an field pea which is used extensively in crop agriculture. ‘Carneval’ has white flowers and yellow cotyledons at maturity, begins to flower at about the 15 to 17th node under long day conditions. Seeds of ‘Carneval’ were planted at an approximate depth of 2.5 cm in 3-L plastic pots (4 seeds per pot and thinned to 2 plants per pot after approximately 2 weeks) in 1:1 Sunshine #4 potting mix (Sun Gro Horticulture, Vancouver, Canada) and sand. Approximately 15 cc of slow-release fertilizer (14-14-14) was added to the potting mix at planting. The experiment was arranged in a completely randomized design and grown at the University of Alberta in a growth chamber set at 19° C./17° C. (day/night) with a 16/8-h photoperiod under cool-white fluorescent lights (F54/15/835/HO high fluorescent bulbs, Phillips, Holland; 350 μE m^2 s^−2, measured with a LI-188 photometer, Li-Cor Biosciences, Lincoln, Nebr.). For the heat stress treatment, plants were placed in a separate growth chamber with a 16/8-h photoperiod under cool-white fluorescent lights (F54/15/835/HO high fluorescent bulbs, Phillips, Holland) for 4 days where the temperature was cycled over a 24 hr period as follows: 34° C. air temperature for 6 hours per day (between 11:00 and 17:00 hrs) for 4 days during the light cycle; the remainder of the light cycle was maintained at a 22° C. air temperature; the dark cycle was maintained at 19° C. After the 4 day heat treatment, the plants were returned to the same growth chamber they were originally grown in, where they were taken to maturity. One application of 4-ME-IAA (1 μM in 0.1% Tween 80) or 0.1% Tween 80 (control) was applied as a spray to the entire plant to cover when the first flowering node of the main stem was at the flower bud or full bloom stage. For the heat stress treatment, the hormone or control application was completed 16 hrs prior to the initiation of the first heat-stress cycle.

[2] = 1 μM, non-heat stressed, at plant maturity
[3] = non-stressed, at plant maturity

## Cc1cccc2[nH]cc(CC(=O)O)c12 [4-ME-IAA, 4-methyl-indole-3-acetic acid]
Pea pericarp
  pericarp growth (biological activity): second most biologically active auxin
[1]; 1 μM in 0.1% Tween 80, 34 days after spray
  plant maturation (dry-down), FIG. 3: stimulated maturation of the plant
[1]; [2]
  Number of pods per plant: 14.9 ± 0.6
  Number of seeds per plant: 57.6 ± 3.5
  Number of stems/stems with pods per plant: 1.1 ± 0.1
  Total seed weight per plant: 13.56 ± 0.64 g
  Weight per seed: 0.24 ± 0.01 g
[1]; Heat-stressed (34° C. 6 h/day, 4 days), 1 μM in 0.1% Tween 80, 16 hr before heat, 9 to 10 days after removal from heat treatment
  Number of pods with developing seeds per plant: 10.6 ± 0.8
[1]; Non-stressed (19° C./17° C.), 1 μM in 0.1% Tween 80, 9 to 10 days
  Number of pods with developing seeds per plant: 15.4 ± 0.6
[1]; heat-stress conditions, 9-10 days after application
  increase in pod retention vs control: 112%
[1]; non-stressed and heat-stress conditions, 9-10 days after application
  pod retention, FIG. 2: increased pod retention
[1]; non-stressed conditions, 9-10 days after application
  increase in pod retention vs control: 41%
[1]; [3]
  Weight per seed: 240 mg per seed
  increase in number of seeds per plant vs control: 39%
  increase in total seed weight per plant vs control: 23%
  more pods per plant with mature seeds than control: 42%

Source: patent US20140106967A1, “AUXIN PLANT GROWTH REGULATORS” (The Governors of The University of Alberta, priority 2011, published 2014)
